According to patent US8871760B2, “[1,2,4]triazolo[3,4-C][1,4]oxazines as P2X7 modulators” (Roche Palo Alto LLC, priority 2009, dated 2014):

Assays:
human P2X7 = target: T1, human P2X7 (UniProt Q99572); experiment: Intracellular Calcium Flux (FLIPR) Assay; assay type: cell-based
T1 sequence (Q99572 1-595): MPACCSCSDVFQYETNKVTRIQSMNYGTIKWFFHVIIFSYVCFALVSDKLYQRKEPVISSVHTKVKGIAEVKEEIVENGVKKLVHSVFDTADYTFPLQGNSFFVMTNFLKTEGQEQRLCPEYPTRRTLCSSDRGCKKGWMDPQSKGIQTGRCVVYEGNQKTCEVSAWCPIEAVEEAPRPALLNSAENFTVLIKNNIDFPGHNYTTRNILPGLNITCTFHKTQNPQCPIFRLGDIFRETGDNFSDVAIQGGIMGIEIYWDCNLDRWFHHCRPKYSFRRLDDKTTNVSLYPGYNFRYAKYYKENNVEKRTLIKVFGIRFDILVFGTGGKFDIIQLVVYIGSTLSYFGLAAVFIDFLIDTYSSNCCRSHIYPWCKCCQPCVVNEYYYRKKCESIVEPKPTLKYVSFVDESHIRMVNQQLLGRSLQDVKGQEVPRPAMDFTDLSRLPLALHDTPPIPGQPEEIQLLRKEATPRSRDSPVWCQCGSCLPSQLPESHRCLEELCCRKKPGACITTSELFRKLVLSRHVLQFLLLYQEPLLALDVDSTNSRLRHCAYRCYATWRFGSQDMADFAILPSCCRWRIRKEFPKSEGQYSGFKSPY
Protocol: Intracellular Calcium Flux (FLIPR) Assay
Compound and Reagent Preparation
Stock solutions of compounds were prepared from powders as a 10 mM DMSO stock solution. These solutions were stored at RT during the two week period of these experiments to prevent freeze-thaw of the DMSO stocks. The DMSO stocks were added to the appropriate assay buffer at a concentration of 10 μM, and then diluted serially to the final concentrations that were tested. No observable precipitate was formed at any time during this process. The aqueous solutions of compounds as well as ATP (Sigma A7699) and BzATP (Sigma B6396) were prepared fresh for each day of experiment.
1321N1 cells stably expressing the full length human P2X7 gene (1321N1-hP2X7) and HEK293 cells stably expressing the full length rat P2X7 gene (HEK293-rP2X7) were obtained from the Roche Cell Culture Facility. 1321N1-hP2X7 cells were grown in Dulbecco's Modified Eagle's Medium (DMEM) high glucose supplemented with 10% FBS and […] G418. HEK293-rP2X7 cells were grown in DMEM/F-12 supplemented with 10% FBS, 1 mM CaCl2, 2 mM MgCl2, 2 mM L-Glutamine and […] G418. Cells were split such that they never became >70% confluent.
Intracellular Calcium Flux (FLIPR)
On the day prior to the experiment, 1321N1-hP2X7 or HEK293-rP2X7 cells were released into suspension with calcium-free PBS+Versene and washed by centrifugation with calcium-free PBS to remove the Versene. Cells were resuspended in growth medium at a density of 2.5×10^5 cells/mL and seeded into black walled, clear bottom 96 well plates (50,000 cells/well) approximately 18 hr prior to intracellular calcium flux experiments.
On the day of the experiment, plates were washed with FLIPR buffer (calcium- and magnesium-free Hank's Balanced Salt Solution (HBSS) supplemented with 10 mM Hepes, 2.5 mM probenecid and 2 mM calcium chloride) using a BIO-TEK 96 channel plate washer and incubated with […] fluo-3 dye at 37° C. for one hr. The dye was then removed by plate washing and the cells were allowed to equilibrate for 20 min at room temperature with antagonist or vehicle (FLIPR buffer). Agonist (100 μM BzATP final concentration for hP2X7; 5 μM BzATP final concentration or rP2X7) was added online with the FLIPR and fluorescence measurements made at 1 sec intervals for 60 sec followed by 3 sec intervals for a further 4 min (5 min total). A final addition of 5 μM ionomycin was made and the maximal BzATP-evoked fluorescence normalized to the maximal ionomycin-evoked fluorescence.

pIC50 (human P2X7) | melting point | Structure (SMILES)
7.58 | 165 to 166 °C | COc1cc(C)c(Nc2nnc3n2C(c2ccc(F)cc2)CSC3)cc1OC (stereo not drawn) [Compound 18, (4,5-Dimethoxy-2-methyl-phenyl)-[5-(4-fluoro-phenyl)-5,6-dihydro-8H-[1,2,4]triazolo[3,4-c][1,4]thiazin-3-yl]-amine]
7.605 | 215 to 217 °C | Cc1cc2cnn(CCO)c2cc1Nc1nnc2n1[C@H](c1ccc(F)cc1)COC2 [Compound 39, 2-{6-[(R)-5-(4-Fluoro-phenyl)-5,6-dihydro-8H-[1,2,4]triazolo[3,4-c][1,4]oxazin-3-ylamino]-5-methyl-indazol-1-yl}-ethanol]
6.96 | 226 to 227 °C | COc1cc(C)c(Nc2nnc3n2C(c2ccc(F)cc2)CS(=O)(=O)C3)cc1OC (stereo not drawn) [Compound 19, (4,5-Dimethoxy-2-methyl-phenyl)-[5-(4-fluoro-phenyl)-7,7-dioxo-5,6,7,8-tetrahydro-7λ^6-[1,2,4]triazolo[3,4-c][1,4]thiazin-3-yl]-amine]
